Calls of active or inactive are those of the source.
Experiments:
[1] = target: Peroxisome proliferator-activated receptor gamma/Nuclear receptor coactivator 2 (Homo sapiens, UniProt P37231); format: functional;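 note: agonist potency for raising coactivator recruitment to the receptor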
[2] = target: Peroxisome proliferator-activated receptor gamma/Nuclear receptor coactivator 3 (Homo sapiens, UniProt P37231); format: functional;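 note: agonist potency for raising coactivator recruitment to the receptor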
[3] = target: Peroxisome proliferator-activated receptor gamma/Nuclear receptor coactivator 1 (Homo sapiens, UniProt P37231); format: functional;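 note: agonist potency as compounds enhance coactivator SRC-1 recruitment to PPARgamma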
Peroxisome proliferator-activated receptor gamma/Nuclear receptor coactivator 1, sequence (P37231 whole entry): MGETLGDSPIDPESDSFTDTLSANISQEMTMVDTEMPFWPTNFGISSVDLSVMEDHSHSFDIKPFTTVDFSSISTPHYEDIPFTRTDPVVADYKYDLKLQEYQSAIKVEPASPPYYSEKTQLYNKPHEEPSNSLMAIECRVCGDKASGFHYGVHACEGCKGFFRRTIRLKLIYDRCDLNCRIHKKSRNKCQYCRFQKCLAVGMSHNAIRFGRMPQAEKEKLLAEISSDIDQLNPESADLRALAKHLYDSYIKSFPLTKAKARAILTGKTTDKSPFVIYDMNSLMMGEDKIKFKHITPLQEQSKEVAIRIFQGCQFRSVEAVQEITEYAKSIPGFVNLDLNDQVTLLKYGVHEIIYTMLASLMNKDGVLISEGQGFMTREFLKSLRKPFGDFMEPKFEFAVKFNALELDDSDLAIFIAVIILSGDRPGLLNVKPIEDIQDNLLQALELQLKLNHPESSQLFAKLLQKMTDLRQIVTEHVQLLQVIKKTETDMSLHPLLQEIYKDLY
Peroxisome proliferator-activated receptor gamma/Nuclear receptor coactivator 1, sequence (Q15788 whole entry, further chain): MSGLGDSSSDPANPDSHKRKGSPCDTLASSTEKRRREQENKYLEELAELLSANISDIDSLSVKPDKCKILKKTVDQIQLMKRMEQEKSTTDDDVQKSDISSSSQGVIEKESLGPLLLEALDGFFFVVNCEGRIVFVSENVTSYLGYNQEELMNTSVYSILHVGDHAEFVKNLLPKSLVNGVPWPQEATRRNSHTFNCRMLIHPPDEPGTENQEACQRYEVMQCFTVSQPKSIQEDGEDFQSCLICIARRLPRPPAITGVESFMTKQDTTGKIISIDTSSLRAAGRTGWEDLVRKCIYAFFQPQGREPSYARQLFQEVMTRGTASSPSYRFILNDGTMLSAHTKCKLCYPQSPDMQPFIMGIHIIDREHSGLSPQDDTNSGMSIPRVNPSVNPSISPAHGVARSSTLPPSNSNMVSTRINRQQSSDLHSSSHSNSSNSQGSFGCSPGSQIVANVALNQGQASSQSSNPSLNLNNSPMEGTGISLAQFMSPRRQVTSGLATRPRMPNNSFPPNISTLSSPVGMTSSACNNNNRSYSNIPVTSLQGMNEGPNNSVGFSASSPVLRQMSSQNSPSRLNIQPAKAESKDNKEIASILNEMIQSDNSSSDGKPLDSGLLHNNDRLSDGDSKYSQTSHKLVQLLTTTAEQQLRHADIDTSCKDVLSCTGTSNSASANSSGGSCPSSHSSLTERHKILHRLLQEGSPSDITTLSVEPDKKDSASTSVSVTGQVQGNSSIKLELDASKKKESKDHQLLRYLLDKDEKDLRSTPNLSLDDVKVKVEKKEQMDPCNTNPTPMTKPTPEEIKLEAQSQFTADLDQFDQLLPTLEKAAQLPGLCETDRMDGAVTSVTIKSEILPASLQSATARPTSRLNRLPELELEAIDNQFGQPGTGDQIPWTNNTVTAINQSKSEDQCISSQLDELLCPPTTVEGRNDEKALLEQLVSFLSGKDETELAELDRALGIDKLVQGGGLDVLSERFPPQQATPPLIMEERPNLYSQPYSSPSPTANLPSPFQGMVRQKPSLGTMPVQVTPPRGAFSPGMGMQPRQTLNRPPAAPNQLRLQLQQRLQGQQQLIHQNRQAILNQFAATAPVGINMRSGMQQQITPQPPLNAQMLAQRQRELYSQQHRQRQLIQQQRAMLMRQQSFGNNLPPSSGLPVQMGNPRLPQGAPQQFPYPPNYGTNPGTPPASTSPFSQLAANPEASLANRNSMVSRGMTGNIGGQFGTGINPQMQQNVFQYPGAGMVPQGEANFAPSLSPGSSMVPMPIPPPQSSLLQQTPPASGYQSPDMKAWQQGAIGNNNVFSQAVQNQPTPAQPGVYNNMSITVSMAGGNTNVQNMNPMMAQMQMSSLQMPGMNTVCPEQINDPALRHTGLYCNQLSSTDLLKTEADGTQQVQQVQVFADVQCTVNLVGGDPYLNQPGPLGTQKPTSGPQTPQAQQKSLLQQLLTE

Large T antigen = Large T antigen (Simian virus 40, UniProt P03070); format: functional, Betapolyomavirus macacae;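 note: Confirmatory-stage PubChem screen for compounds that inhibit SV40 T antigen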
[4] = mitochondrial function rescue without frataxin homolog – Friedreich's ataxia, plus single-dose screen, dose response (AID 1465); format: functional;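 note: yeast depleted of Yfh1p frataxin homolog grown on glycerol needing respiration; WST-1 tetrazolium dye reduction as measure of cellular dehydrogenase metabolic activity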
H4 = experiment: Luminescence Cell-Based Dose Response HTS to Identify Activators of 5'UTR Stem-Loop Driven Prion Protein mRNA Translation in H4 Neuroglioblastoma Cells. [Related pubchem assays: 1829 (Project Summary), 1814 (Primary HTS)]; format: functional; conditions: Homo sapiens
[5] = Luminescence Cell-Based Dose Confirmation HTS to Identify Activators of 5'UTR Stem-Loop Driven Alpha-Synuclein mRNA Translation in H4 Neuroglioblastoma Cells. [Related pubchem assays: 1829 (Project Summary), 1814 (Primary HTS)]; format: functional
[6] = A Cell Based Secondary Assay To Explore Cytotoxicity of Compounds that Sensitize Mycobacterium Tuberculosis to Beta-Lactam Antibiotics.; format: functional
[7] = Luminescence Cell-Based Dose Response HTS to Identify Activators of Luciferase Translation or Activity in H4 […] Cells. [Related pubchem assays: 1829 (Project Summary), 1814 (Primary HTS)]; format: functional
[8] = target: Transitional endoplasmic reticulum ATPase (Homo sapiens, UniProt P55072, C522A); experiment: C522A mutant p97 ATPase inhibitors, dose response, counter-screen for p97 inhibitor project, biochemical, luminescence (AID 1544)
Transitional endoplasmic reticulum ATPase (Homo sapiens, UniProt P55072, C522A), sequence (P55072 2-806 C522A limits assumed): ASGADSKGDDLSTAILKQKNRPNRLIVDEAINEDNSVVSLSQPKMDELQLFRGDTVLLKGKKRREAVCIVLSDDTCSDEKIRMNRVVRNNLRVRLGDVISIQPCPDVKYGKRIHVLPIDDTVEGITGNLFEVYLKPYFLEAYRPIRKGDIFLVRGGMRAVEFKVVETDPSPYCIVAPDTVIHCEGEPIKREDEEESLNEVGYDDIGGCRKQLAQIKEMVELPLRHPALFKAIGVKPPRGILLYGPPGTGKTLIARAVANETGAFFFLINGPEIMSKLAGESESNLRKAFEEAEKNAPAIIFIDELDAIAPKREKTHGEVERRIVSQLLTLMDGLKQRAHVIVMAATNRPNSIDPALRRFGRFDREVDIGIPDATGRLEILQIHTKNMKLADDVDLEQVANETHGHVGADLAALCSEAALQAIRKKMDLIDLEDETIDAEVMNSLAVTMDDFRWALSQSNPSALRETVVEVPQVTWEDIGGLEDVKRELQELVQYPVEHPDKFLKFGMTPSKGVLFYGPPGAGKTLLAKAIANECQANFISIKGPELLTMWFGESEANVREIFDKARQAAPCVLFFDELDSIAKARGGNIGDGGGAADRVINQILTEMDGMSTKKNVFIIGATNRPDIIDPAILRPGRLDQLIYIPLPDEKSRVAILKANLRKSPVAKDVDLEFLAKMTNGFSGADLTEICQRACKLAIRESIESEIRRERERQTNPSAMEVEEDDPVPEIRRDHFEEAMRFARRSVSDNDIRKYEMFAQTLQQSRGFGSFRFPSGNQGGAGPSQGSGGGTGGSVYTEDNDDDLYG

[9] = target: Transitional endoplasmic reticulum ATPase (Homo sapiens, UniProt P55072); experiment: p97 ATPase inhibitors, dose response, biochemical (AID 1534)
Transitional endoplasmic reticulum ATPase (Homo sapiens, UniProt P55072), sequence (P55072 whole entry): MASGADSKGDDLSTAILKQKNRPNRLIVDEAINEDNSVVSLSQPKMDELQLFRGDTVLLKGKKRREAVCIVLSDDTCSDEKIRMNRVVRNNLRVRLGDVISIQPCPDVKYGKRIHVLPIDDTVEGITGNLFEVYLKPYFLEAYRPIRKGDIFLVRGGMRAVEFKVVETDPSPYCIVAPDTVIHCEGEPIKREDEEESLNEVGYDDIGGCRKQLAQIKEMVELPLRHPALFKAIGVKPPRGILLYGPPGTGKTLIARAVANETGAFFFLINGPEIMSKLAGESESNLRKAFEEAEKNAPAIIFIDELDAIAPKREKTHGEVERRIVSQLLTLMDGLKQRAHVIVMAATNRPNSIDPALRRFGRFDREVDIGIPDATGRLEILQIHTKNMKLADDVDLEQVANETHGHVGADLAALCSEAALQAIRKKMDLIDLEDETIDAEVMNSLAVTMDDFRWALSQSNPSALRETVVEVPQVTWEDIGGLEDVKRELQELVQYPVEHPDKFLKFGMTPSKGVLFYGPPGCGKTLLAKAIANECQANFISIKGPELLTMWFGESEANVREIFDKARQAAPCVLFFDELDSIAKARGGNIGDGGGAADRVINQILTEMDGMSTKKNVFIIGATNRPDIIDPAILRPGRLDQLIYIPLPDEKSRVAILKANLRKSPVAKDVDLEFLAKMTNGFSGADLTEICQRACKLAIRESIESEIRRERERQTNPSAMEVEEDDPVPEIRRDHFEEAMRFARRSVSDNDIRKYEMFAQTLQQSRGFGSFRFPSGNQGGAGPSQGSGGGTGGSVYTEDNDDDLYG

[10] = target: T1, Microphthalmia-associated transcription factor (Homo sapiens, UniProt O75030); experiment: reducers of TRPM1 reporter luminescence, concentration series – cell-based, SK-MEL-5, cherry-picked, set 3, MITF inhibitor project, dose response (AID 493073); format: functional;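 note: SK-MEL-5 melanoma cells with luciferase driven by the MITF target TRPM1 promoter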
T1 sequence (O75030 whole entry): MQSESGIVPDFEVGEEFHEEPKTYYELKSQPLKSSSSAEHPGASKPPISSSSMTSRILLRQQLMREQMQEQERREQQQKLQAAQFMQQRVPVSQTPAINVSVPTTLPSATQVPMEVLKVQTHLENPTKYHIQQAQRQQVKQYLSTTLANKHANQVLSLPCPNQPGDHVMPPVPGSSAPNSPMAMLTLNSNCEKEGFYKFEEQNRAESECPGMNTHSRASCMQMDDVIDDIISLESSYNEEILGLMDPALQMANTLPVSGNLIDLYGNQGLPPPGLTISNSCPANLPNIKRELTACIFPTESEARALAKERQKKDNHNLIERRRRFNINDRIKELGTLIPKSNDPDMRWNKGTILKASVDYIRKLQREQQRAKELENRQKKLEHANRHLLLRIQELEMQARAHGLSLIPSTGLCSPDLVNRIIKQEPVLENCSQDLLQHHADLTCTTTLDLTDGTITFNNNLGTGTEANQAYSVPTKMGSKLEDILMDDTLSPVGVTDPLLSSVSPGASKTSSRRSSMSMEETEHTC

[11] = NIH-3T3 fibroblast cytotoxicity, dose response, cytotoxicity control, cell-based, fluorescence, Alamar Blue, secondary assay (AID 2327); format: functional;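 note: NIH-3T3 mouse fibroblasts cultured with fluconazole at 8 µg/mL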
[12] = fluconazole-exposed Candida albicans growth modulators – fluorescence, retest, confirmation (AID 2467); format: functional, cell-based
[13] = Luminescence-based dose response cell-based high throughput screening assay for cytotoxic compounds using the IEC-6 intestinal epithelial cell line. [Related pubchem assays: 1858 (Summary AID.), 1825 (Counterscreen.), 1907 (Confirmation screen.)]; format: functional
cells [14] = experiment: cells
[15] = luciferase reporter signal suppression in cells – H4 neuroglioma cells, luminescence, dose response (AID 1990); format: functional, cell-based
[16] = Trypanosoma cruzi growth suppression in host cells – NIH3T3 host cells, beta-gal luminescence, confirmation (AID 2044); format: functional, cell-based;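 note: intracellular parasites grown in NIH/3T3 mouse fibroblasts as host cells; luminescent beta-galactosidase reporter signal from transgenic T. cruzi replicating inside host cells; inhibitors lower the luminescence signal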
cells [17] = format: functional, cell-based
BJ [18] = experiment: cells; format: functional, cell-based; conditions: Homo sapiens
[19] = alpha-synuclein stem-loop luciferase translation blockers – H4 neuroglioma cells, luminescence, confirmation (AID 1988); format: functional, cell-based
BJ [20] = experiment: BJ-TERT fibroblast viability loss – cell-based, RAS-independent, luminescence, dose response (AID 1933); format: functional; conditions: Homo sapiens
[21] = luciferase reporter signal reduction – luminescence, H4-C neuroglioblastoma cells, dose response (AID 2458); format: functional, cell-based;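 note: H4 neuroglioblastoma cells stably carrying a luciferase reporter gene fusion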
[22] = alpha-synuclein stem-loop translation blockers – luminescence, H4 neuroglioblastoma cells, dose confirmation, confirmation (AID 2454); format: functional, cell-based;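 note: H4 neuroglioblastoma cells carrying an alpha-synuclein 5'UTR luciferase reporter; potency for inhibition of the luciferase signal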
[23] = NIH3T3 cell viability loss – ATP luminescence, mouse fibroblasts, counter-screen, dose response (AID 2010); format: functional, cell-based;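 note: cells exposed to compound for about 90 hours before reading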
[24] = DRD fibroblast viability loss – cell-based, non-viral oncogenic, luminescence, dose response (AID 1934); format: functional; conditions: Homo sapiens
[25] = HEK-293T viability loss after treatment – luminescence, T-cell screen hits, cytotoxicity control for TCR NF-kB inhibitor project, dose response (AID 489026); format: functional, cell-based;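 note: cells exposed to compound about 14 hours before the viability readout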
[26] = target: T2, Polyadenylate-binding protein 1 (Homo sapiens, UniProt P11940); experiment: MLLE binding blockers, Cy5 peptide tracer – biochemical, fluorescence polarization, Cy5-PAM2 peptide, secondary, miRNA deadenylation inhibitor project, dose response (AID 602260); format: functional; conditions: read-out: IC50_Mean
[27] = target: T2, Polyadenylate-binding protein 1; experiment: MLLE domain peptide-binding blockers, IC50 – biochemical, fluorescence polarization, FITC-PAM2 peptide, dose response (AID 602259); format: functional; conditions: read-out: IC50_Mean
NS3 = NS3 (Hepatitis C virus, UniProt A3EZJ3); experiment: PubChem AID 2173; parameters: species or system Hepacivirus hominis
Protein Tat = target: T3, Protein Tat (Human immunodeficiency virus type 1 group M subtype B (isolate HXB2)(HIV-1), UniProt P04608); format: functional;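 note: tat binding to TAR RNA read out by fluorescence polarization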
T3 sequence (P04608 whole entry): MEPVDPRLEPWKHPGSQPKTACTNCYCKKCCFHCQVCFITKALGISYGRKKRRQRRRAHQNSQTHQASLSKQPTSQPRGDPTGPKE

[28] = target: Induced myeloid leukemia cell differentiation protein Mcl-1 (Homo sapiens, UniProt Q07820); format: functional
Induced myeloid leukemia cell differentiation protein Mcl-1, sequence (Q07820 whole entry): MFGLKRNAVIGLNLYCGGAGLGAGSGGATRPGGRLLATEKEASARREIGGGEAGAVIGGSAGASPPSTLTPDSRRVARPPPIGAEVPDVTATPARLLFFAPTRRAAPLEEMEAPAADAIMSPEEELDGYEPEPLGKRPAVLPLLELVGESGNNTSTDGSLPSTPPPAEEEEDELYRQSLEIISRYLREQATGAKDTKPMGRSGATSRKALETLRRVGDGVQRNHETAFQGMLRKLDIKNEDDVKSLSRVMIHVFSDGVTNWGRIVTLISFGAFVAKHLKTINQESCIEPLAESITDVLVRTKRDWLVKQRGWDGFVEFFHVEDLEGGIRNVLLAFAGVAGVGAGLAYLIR

[29] = target: T4, Mannose-6-phosphate isomerase (Homo sapiens, UniProt P34949); experiment: MPI inhibition at elevated mannose 6-phosphate – biochemical, fluorescence intensity, high mannose 6-phosphate, primary screen (AID 1220)
T4 sequence (P34949 whole entry): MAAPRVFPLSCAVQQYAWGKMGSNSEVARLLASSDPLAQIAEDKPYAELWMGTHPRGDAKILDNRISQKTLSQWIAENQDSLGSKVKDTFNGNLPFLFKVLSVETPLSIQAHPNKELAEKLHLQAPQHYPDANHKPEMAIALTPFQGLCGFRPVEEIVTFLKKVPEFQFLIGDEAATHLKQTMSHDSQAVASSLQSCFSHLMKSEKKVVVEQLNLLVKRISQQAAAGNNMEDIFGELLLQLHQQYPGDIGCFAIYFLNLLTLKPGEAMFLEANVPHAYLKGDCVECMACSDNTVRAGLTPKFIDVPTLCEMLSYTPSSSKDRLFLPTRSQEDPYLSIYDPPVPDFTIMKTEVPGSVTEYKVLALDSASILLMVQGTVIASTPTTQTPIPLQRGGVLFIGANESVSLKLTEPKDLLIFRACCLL

H9c2 = experiment: cells; format: functional, cell-based; conditions: Rattus norvegicus, H9c2, Myocardium;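 note: confirmatory concentration-response retest of ultra-high-throughput screening hits for modulation of myocardial damage; cell death induced by hydrogen peroxide oxidative stress; compound pretreatment for 60 min then peroxide exposure for 2 h; potency is for protecting the cells against peroxide damage rather than for killing them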
[30] = target: T5, Zinc finger protein mex-5 (Caenorhabditis elegans, UniProt Q9XUB2); experiment: potency of MEX-5 RNA-binding blockers – biochemical, C. elegans, fluorescence polarization, dose response (AID 1960)
T5 sequence (Q9XUB2 whole entry): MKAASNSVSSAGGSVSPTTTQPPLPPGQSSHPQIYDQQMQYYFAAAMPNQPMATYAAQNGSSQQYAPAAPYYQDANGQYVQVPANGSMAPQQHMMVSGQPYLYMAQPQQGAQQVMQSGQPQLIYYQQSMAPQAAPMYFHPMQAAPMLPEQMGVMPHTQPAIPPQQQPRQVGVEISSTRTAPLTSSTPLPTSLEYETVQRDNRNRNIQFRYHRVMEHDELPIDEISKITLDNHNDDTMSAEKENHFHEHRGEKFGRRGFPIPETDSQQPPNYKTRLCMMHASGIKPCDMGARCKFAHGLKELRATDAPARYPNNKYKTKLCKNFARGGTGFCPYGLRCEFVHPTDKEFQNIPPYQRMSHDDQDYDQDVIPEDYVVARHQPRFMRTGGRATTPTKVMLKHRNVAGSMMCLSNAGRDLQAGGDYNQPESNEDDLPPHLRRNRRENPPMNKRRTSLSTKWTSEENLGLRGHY

[31] = viability of HCT116 lacking mutant beta-catenin – cell-based, human colon tumor, dose response (AID 1045); format: functional;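 note: HCT116 colon tumor cells with beta catenin knocked out; cells exposed to compound for 60 hours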
[32] = target: T6, RNA-binding protein pos-1 (Caenorhabditis elegans, UniProt G5EF15); experiment: disruptors of C. elegans POS-1 RNA interaction – biochemical, fluorescence polarization, dose response (AID 1964);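 note: purified POS-1 fused to maltose binding protein made in E. coli; potency of compounds blocking POS-1 binding to fluorescent RNA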
T6 sequence (G5EF15 whole entry): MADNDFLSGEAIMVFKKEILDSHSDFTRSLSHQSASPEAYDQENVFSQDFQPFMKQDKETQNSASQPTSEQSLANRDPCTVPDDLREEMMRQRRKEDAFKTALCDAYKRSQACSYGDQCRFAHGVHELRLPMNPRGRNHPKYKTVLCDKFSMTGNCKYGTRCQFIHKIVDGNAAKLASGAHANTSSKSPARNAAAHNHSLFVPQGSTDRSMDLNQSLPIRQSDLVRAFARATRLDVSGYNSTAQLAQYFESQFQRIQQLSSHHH

SUMO-activating enzyme [33] = target: T7, SUMO-activating enzyme (Homo sapiens, UniProt Q9UBT2); experiment: blockers of UBC9-mediated SUMO conjugation – biochemical, AlphaScreen, SUMOylation inhibitor project, confirmation (AID 2018); format: functional
T7 sequence (Q9UBE0 whole entry): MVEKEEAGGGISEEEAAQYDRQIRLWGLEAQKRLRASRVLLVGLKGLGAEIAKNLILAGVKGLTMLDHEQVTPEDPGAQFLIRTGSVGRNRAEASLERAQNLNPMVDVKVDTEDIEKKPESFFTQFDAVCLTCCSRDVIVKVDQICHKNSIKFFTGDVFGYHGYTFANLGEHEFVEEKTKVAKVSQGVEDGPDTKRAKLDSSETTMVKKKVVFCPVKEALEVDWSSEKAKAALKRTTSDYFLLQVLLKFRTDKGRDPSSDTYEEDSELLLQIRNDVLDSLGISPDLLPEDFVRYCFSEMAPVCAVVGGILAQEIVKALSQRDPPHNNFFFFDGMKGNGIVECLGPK
T7 sequence (Q9UBT2 whole entry): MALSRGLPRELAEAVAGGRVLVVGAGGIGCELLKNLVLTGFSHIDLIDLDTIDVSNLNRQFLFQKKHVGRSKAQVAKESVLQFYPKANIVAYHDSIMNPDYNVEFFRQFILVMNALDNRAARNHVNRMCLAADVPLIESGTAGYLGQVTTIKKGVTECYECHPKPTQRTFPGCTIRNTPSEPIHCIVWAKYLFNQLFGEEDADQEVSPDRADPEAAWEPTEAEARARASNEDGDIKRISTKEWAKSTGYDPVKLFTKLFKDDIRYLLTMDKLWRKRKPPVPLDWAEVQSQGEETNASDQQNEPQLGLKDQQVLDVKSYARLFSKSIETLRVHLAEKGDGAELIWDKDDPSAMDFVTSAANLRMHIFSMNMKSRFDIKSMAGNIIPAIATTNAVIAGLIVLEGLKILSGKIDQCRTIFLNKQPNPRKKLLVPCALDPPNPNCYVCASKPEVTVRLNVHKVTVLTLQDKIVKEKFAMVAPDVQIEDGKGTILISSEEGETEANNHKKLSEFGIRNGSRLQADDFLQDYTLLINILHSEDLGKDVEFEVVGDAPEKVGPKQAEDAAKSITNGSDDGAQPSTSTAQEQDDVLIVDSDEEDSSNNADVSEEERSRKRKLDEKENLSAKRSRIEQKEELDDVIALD

[34] = target: T4, Mannose-6-phosphate isomerase; experiment: MPI enzyme activity inhibition – biochemical, fluorescence intensity, coupled assay, primary screen (AID 1209)
Vero = experiment: cells; format: functional; conditions: Chlorocebus sabaeus
SUMO-activating enzyme [35] = target: T7, SUMO-activating enzyme; experiment: blockers of SAE1/SAE2–UBC9 SUMO transfer – biochemical, HTRF, uHTS, primary screen (AID 2006); format: protein-complex assay
[36] = Luminescence Cell-Based Dose Retest to Confirm Inhibitors of Cancer Stem Cells. [Related pubchem assays (depositor defined):AID2717, AID2721]; format: functional; conditions: Homo sapiens
[37] = viability of PTEN-deleted HCT116 cells – cell-based, HCT116 PTEN knockout, dose response (AID 1047); format: functional;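 note: HCT116 colon tumor cells with PTEN knocked out; cells exposed to compound for 60 hours before readout; potency for loss of cell viability measured by luminescence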

Nc1nc2ccc(N3CCOCC3)cc2s1
EC50 [1]: > 79.4 µM (not active)
EC50 [2]: > 79.4 µM (not active)
EC50 [3]: > 79.4 µM (not active)
IC50 (Large T antigen): 7.66 µM (active)

O=C1CNC(=S)N1CCc1ccc(Cl)cc1
EC50 [4]: > 100 µM (active)

N#CC1=C2C=Cc3ccccc3N2CCCC1=O
EC50 (H4): 21 µM (active)
EC50 [5]: 20 µM (active)
CC50 [6]: > 40 µM (active)
EC50 [7]: 26.4 µM (active)

Cc1[nH]c2ccccc2c1C(=O)CCl
IC50 [8]: > 50 µM (not active)
IC50 [9]: > 50 µM (not active)
AC50 [10]: 6.78 µM (active)
EC50 [11]: 8.72 µM (inconclusive)
EC50 [12]: 0.497 µM (active)

C/C=C(\C)C(=O)N[C@@H](c1ccccc1)[C@@H](O)C(=O)O[C@H]1C[C@@]2(O)[C@@H](OC(=O)c3ccccc3)C3[C@](C)(C(=O)[C@H](OC(C)=O)C(=C1C)C2(C)C)[C@H](O)C[C@H]1OC[C@@]31OC(C)=O (stereo not given in full)
IC50 [13]: 0.101 µM (active)
EC50 (cells [14]): 0.011 µM (active)
EC50 [15]: 1.71 µM (active)
EC50 [16]: < 0.1 µM (active)
EC50 (cells [17]): 0.19 µM (active)
EC50 (BJ [18]): > 150 µM (not active)
EC50 [19]: < 0.1 µM (active)
EC50 (BJ [20]): 0.189 µM (active)
EC50 [21]: 0.092 µM (active)
EC50 [22]: 0.11 µM (active)
EC50 [23]: 0.171 µM (active)
EC50 [24]: < 0.12 µM (active)
IC50 [25]: > 80 µM (inactive)

Cc1noc(/C=C/Nc2ccc(F)cc2F)c1[N+](=O)[O-]
CC50 [6]: 39 µM (active)
IC50 [26]: 35.7 µM (inactive)
IC50 [27]: 27.5 µM (inactive)

CCOC(=O)c1oc2ccc(S(=O)(=O)N3CCC(C)CC3)cc2c1C
EC50 [1]: > 79.4 µM (not active)
EC50 [2]: > 79.4 µM (not active)
EC50 [3]: > 79.4 µM (not active)

Sc1nnc(CSCc2ccc(Cl)cc2Cl)n1-c1ccccc1
EC50 [4]: > 100 µM (active)

O=C(c1ccc2nc(-c3ccco3)c(-c3ccco3)nc2c1)N1CCN(c2ncccn2)CC1
IC50 (NS3): 11.5 µM (not active)
IC50 (Protein Tat): 7.28 µM (inconclusive)
IC50 [28]: 7.82 µM (active)

Cc1ccccc1C(=O)Nc1nc2c(C)csc2c(=O)s1
IC50 [8]: > 50 µM (not active)
IC50 [9]: > 50 µM (not active)

CCOC(=O)c1c2ccc(OCC(=O)N/N=C/c3ccc(C)cc3)cc2n2ccccc12
IC50 [29]: 13.1 µM (active)
IC50 (H9c2): 40.5 µM (inactive)
EC50 [30]: > 300 µM (not active)
EC50 [31]: 6.24 µM (active)
EC50 [32]: > 300 µM (not active)
IC50 (SUMO-activating enzyme [33]): 17.9 µM (active)
IC50 [34]: > 50 µM (not active)
CC50 (Vero): > 25 µM (active)
IC50 (SUMO-activating enzyme [35]): 7.01 µM (active)
AC50 [36]: 5.11 µM (active)
EC50 [37]: 5.25 µM (active)
